Test results from PubChem BioAssay (NCI).
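Step 1: Grow cells in 96-well plates. Step 2: Expose to compound for 48 hours at 5 concentrations. Step 3: Interpolate endpoints linearly; if unreached, use highest concentration. The concentration for 50% growth inhibition is given as GI50. Definition used: TGI = concentration required for complete inhibition of growth.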

Tests used:
Test in all cases: NCI-60 cell line screen, 48 h
786-0 renal = system: 786-0 renal
A549 NSCLC = system: A549 NSCLC
HS 578T breast = system: HS 578T breast
MCF7 breast = system: MCF7 breast
NCI-H23 lung = system: NCI-H23 lung
NCI-H460 lung = system: NCI-H460 lung
OVCAR-3 ovarian = system: OVCAR-3 ovarian
RXF 393 renal = system: RXF 393 renal
SK-OV-3 ovarian = system: SK-OV-3 ovarian
SW-620 colon = system: SW-620 colon

Compound	GI50 (786-0 renal) [µM]	TGI (786-0 renal) [µM]	GI50 (A549 NSCLC) [µM]	TGI (A549 NSCLC) [µM]	GI50 (HS 578T breast) [µM]	TGI (HS 578T breast) [µM]	GI50 (MCF7 breast) [µM]	TGI (MCF7 breast) [µM]	GI50 (NCI-H23 lung) [µM]	TGI (NCI-H23 lung) [µM]	GI50 (NCI-H460 lung) [µM]	TGI (NCI-H460 lung) [µM]	GI50 (OVCAR-3 ovarian) [µM]	TGI (OVCAR-3 ovarian) [µM]	GI50 (RXF 393 renal) [µM]	TGI (RXF 393 renal) [µM]	GI50 (SK-OV-3 ovarian) [µM]	TGI (SK-OV-3 ovarian) [µM]	GI50 (SW-620 colon) [µM]	TGI (SW-620 colon) [µM]
CSc1ccc(C2=NN(C(C)=O)C(c3ccc(F)cc3)C2)cc1 (centres undefined)	15.6	35.7	12.1	30.9	20.8	49.7	17.2	41.3	16.5	34.9	15.9	50.7	16.2	49.5	18.5	34.6	23	67.7	17.7	40.3
CN(O)C(=S)c1ccccc1	–	14.3	–	> 100	–	> 100	–	> 100	–	19.8	–	18.3	–	34.8	–	14.5	–	> 95.5	–	14.6
CC1CCc2c(c(CC3CC(=O)NC(=O)C3)nn2-c2ccccc2)C1 (centres undefined)	–	> 100	–	> 100	–	> 100	–	> 100	–	> 100	–	> 100	–	> 100	–	> 100	–	> 100	–	> 100
O=C(Nc1cccc(Cl)c1)c1cc(N=Nc2ccc([N+](=O)[O-])cc2Cl)ccc1O	2.93	8.27	3.01	> 100	1.95	7.71	2.03	5.79	1.93	4.58	2.74	7.92	1.06	4.38	2.56	6.99	1.94	6.63	2.95	–
COc1ccc(CNc2cnc3cc(N)cc(N)c3n2)cc1	17.2	31.6	23	54.1	24.2	69.3	37.5	> 100	15.1	29.1	33.8	> 100	24.5	> 100	22.3	49.8	82.1	> 100	23.5	50.4
CCOc1c(C#N)c2c(N)ncnc2n1C1OC(CO)C(O)C1O (centres undefined)	3.76	> 24.9	2.27	> 100	2.12	14	2.45	> 100	3.69	34.4	2.48	> 100	2.53	7.09	2.27	6.64	3.34	53.1	2.18	> 44.6
CC[C@]12C=CCN3CC[C@@]4(c5ccc(OC)cc5N(C)[C@H]4[C@@](O)(C(=O)OC)[C@@H]1OC(=O)CCC(=O)N[C@H](Cc1c[nH]c4ccccc14)C(=O)OC)[C@@H]32	3.08	> 100	5.36	22.1	5.52	28.7	2.98	16.1	13.5	54.3	14.8	32.8	3.8	16.4	2.22	5.72	15.5	33.7	3.03	10.6
O=C(Nc1nc(-c2ccc(Cl)cc2)nc2c1sc(=S)n2-c1ccccc1)C(F)(F)F	1.67	3.27	3.88	18	3.37	9.7	10.2	> 100	5.45	26.8	2.72	7.26	2.81	6.97	2.36	5.01	2.71	8.1	4.34	26.3
CCOC(=O)c1cc(-c2ccc(OC)c(OC)c2)[nH]c1N/N=C/c1c(Cl)cccc1Cl	2.77	12.3	3.06	> 100	2.71	18.8	0.415	17.8	2.97	14	1.35	> 35.9	0.74	2.64	1.91	9.77	1.85	17.6	2.5	> 44.5
C=C1NC(=O)C(CC(C(=O)C(=O)Nc2c(C)cccc2C(C)(C)C)C(=O)c2ccc3ccccc3c2)C(=O)N1 (centres undefined)	–	> 100	–	> 100	–	> 100	–	> 100	–	> 100	–	> 100	–	> 100	–	> 100	–	> 100	–	> 100
CC(O)CN1c2ccccc2Sc2ccc(Cl)cc21 (centres undefined)	–	> 10	–	> 10	–	> 10	–	> 10	–	> 10	–	> 10	–	> 10	–	> 10	–	> 10	–	> 10
